In patent publication US20250134870A1, “PATHWAY MODULATOR, PHARMACEUTICAL COMPOSITION HAVING SAME, USE THEREOF, AND THERAPEUTIC METHOD USING SAME” (Jiangsu Yahong Meditech Co., Ltd., priority 2021, published 2025):
Read-outs that look alike come from different tables or passages of the source.

Experiments:
[1] = system: 2,4-dinitrobenzenesulfonic acid (DNBS)-induced colitis; experiment: DNBS-induced enteritis/colitis in rats: body weight and stool score (Example 10); format: in vivo, Wistar rats; conditions: positive control drug
Experimental: The 90 animals were randomly grouped on Day-1 (i.e., the day before the experiment) based on animal body weight to ensure that the body weight of each group of animals were similar, so as to reduce bias. Rats were fasted for 40 hours before the experiment and were injected subcutaneously with 5% glucose saline (10 mL/kg, once daily) during fasting. • Experimental grouping:
On Day 1 of the experiment, fasting rats were anesthetized by intraperitoneal injection with Zoletil (25 mg/kg Tiletamine and 25 mg/kg Zolazepam) and 5 mg/kg Xylazine.
In groups G2-G6, a hose was inserted from the anus to left colic flexure (about 8 cm from the anus) and colitis was induced by DNBS enema (0.5 mL/animal) in rats. The normal control group (G1) received 30% ethanol enema by the same process. The head of the animal after enema was lowered for 15 min, and then the animal was kept in Trendelenburg position until waked to avoid backflow of the enema fluid.
The percentage of body weight was calculated according to the following formula: (body weight on Day X-initial weight)/initial weight]×100%.
(2) Stool score: during the experiment, the stool state of rats was scored daily (0=normal, 1=wet/sticky, 2=loose, 3=liquid).

[2] = system: 2,4-dinitrobenzenesulfonic acid (DNBS)-induced colitis; experiment: DNBS-induced colitis in rats: pathological score of colon tissue (H&E); format: in vivo, Wistar rats
Description: The proximal, ulcer (corresponding sites can be taken, if there was no ulcer) and distal parts of the colon tissue fixed by neutral buffered formalin were embedded with paraffin, sectioned (thickness 5 μm), and histopathological score was given by H&E staining.

[3] = system: 2,4-dinitrobenzenesulfonic acid (DNBS)-induced colitis; experiment: DNBS-induced colitis in rats: macroscopic evaluation of colon on Day 7 (colon length, weight, ulcer area, CW/CL, CW/BW, CW/CL/BW); format: in vivo, Wistar rats; conditions: for inhibition at 9 mg/kg: Rattus norvegicus, 168 h
Experimental: (3) Colon observation: after the end of the experiment, all animals were anesthetized with Zoletil (intravenous injection, 25 mg/kg) and the abdominal cavity was opened. Blood was collected from the abdominal aorta with EDTA anticoagulation (centrifugation conditions: 4° C., 2,000 g, 10 min). After the animals were sacrificed by bloodletting, the colon (from the cecum to the anus) was dissected and the colon length was measured immediately. The colon was longitudinally incised and rinsed until clean. Then the colon weight and ulcer area were recorded, and the colon was photographed as a whole and divided into three parts, among which two parts were stored at −80° C. after flash freezing with liquid nitrogen for MPO and cytokine detection, and the other part of colon was fixed with 10% neutral buffered formalin. If the ulcer was irregularly shaped, it could be considered as rectangular, and then its length and width were measured for ulcer area assessment. Ulcer area (cm^2)=ulcer length (cm)×ulcer width (cm).

[4] = system: bleomycin-induced skin fibrosis; experiment: Bleomycin-induced skin fibrosis in mice: skin histopathology (dermal thickness, capillary density score, inflammatory cell infiltration score); format: in vivo, male C57BL/6 mice; conditions: 50 mg/kg IP QD, 28 days
Experimental: The skin tissue of the lesioned skin was subjected to dehydration, embedding and sectioning according to the pathology SOP, and the tissue was stained by HE and Masson staining. Histopathological analysis was performed according to the following methods:
Masson-stained sections were panoramically scanned by using Nanozomer S210 and the scanned images were subjected to quantitative analysis using Visiopharm VIS6.0 software. The degree of fibrosis was currently represented by the dermal thickness after Masson staining.
The fields of observation was selected in the dermis layer of the lesioned area (the number of fields selected was determined according to the size of the lesioned area) and scored according to the area occupied by capillaries in the area: • 0: No capillary formed • 1: The proportion of capillaries formed was less than 25%; • 2: The proportion of capillaries formed was 25-50%; • 3: The proportion of capillaries formed was 50-75%; • 4: The proportion of capillaries formed was greater than 75%. 3.8.3 Inflammatory cell infiltration score of dermis layer
The fields of observation was selected in the dermis layer of the lesioned area (the number of fields selected was determined according to the size of the lesioned area) and scored according to the degree of inflammatory cell infiltration: • 0: No inflammatory cell infiltration: • 1: A small amount of focal inflammatory cell infiltration; • 2: Scattered diffuse inflammatory cell infiltration: • 3: A large amount of diffuse inflammatory cell infiltration; • 4: A large amount of agglomerated inflammatory cell infiltration.

[5] = system: bleomycin-induced skin fibrosis; experiment: Bleomycin-induced skin fibrosis in mice: body weight, spleen weight, spleen/body weight ratio (Example 5); format: in vivo, male C57BL/6 mice; conditions: 50 mg/kg IP QD, 28 days
Experimental: Isoflurane (2.0 to 2.5%) was used to anesthetize the animals. The fur of the back was removed, and a 1 cm^2 area was selected for intradermal injection of bleomycin (0.3 mg/kg, 100 μL) every two days to establish a skin fibrosis model.
Dosing started on the day of model establishment. Each animal was weighed for the animal body weight before dosing to calculate the volume of administration, wherein the period of administration was 28 days. […] Frequency of administration: twice a day for Nintedanib group and once a day for other groups.
The change in animal body weight was recorded twice a week from the date of model establishment. The clinical manifestations of animals, such as shortness and difficulty of breath, abdominal suction, decreased activity and malaise, were closely observed.
Animals were weighed at the experimental endpoints and the body weight was recorded to calculate the volume of administration. 6 h after dosing, firstly, whole blood was collected from the orbital venous plexus of mice and subjected to blood routine test using an automated Hematology analyzer (Sysmex XS-800i). […]
Then the animals were euthanized by intraperitoneal injection of pentobarbital sodium. The material and order of dissection were as follows: Spleen was collected and weighed and the weight was recorded. […]
The mean±SEM was calculated using Graphpad prism 6.0 software. […]

SMILES: C[C@]12C=CC(=O)C=C1CC[C@@H]1[C@@H]2C(=O)C[C@@]2(C)[C@H]1CC[C@]2(O)C(=O)CO [Prednisone]
- stool form score AUC [1]: significantly reduce
- Pathological score, Distal end, Damage ([2]; mean, G3, 9 mg/kg PO QD × 7): 1.33
- Pathological score, Distal end, Inflammation ([2]; mean, G3, 9 mg/kg PO QD × 7): 2.00
- Pathological score, Proximal end, Damage ([2]; mean, G3, 9 mg/kg PO QD × 7): 0.80
- Pathological score, Proximal end, Inflammation ([2]; mean, G3, 9 mg/kg PO QD × 7): 1.73
- Pathological score, Total score, Damage ([2]; mean, G3, 9 mg/kg PO QD × 7): 4.00
- Pathological score, Total score, Inflammation ([2]; mean, G3, 9 mg/kg PO QD × 7): 6.07
- Pathological score, Ulcer end, Damage ([2]; mean, G3, 9 mg/kg PO QD × 7): 1.87
- Pathological score, Ulcer end, Inflammation ([2]; mean, G3, 9 mg/kg PO QD × 7): 2.33
- inflammatory cell infiltration score of colon ulcer end ([2]; positive control drug): significantly reduce
- inhibition at 9 mg/kg ([3]; G3, 9 mg/kg PO QD × 7, read-out: IR1 (inhibition rate 1, CW/CL/BW)): 44.2%
- inhibition at 9 mg/kg ([3]; G3, 9 mg/kg PO QD × 7, read-out: IR2 (inhibition rate 2, CW/BW)): 50.1%
- inhibition at 9 mg/kg ([3]; G3, 9 mg/kg PO QD × 7, read-out: IR3 (inhibition rate 3, CW/CL)): 46.5%
- BW ([3]; mean, G3, 9 mg/kg PO QD × 7): 162.92 g
- CW/BW ×100 ([3]; mean, G3, 9 mg/kg PO QD × 7): 0.99
- Ulcer area ([3]; mean, G3, 9 mg/kg PO QD × 7): 1.26 cm^2
- Ulcer length ([3]; mean, G3, 9 mg/kg PO QD × 7): 0.77 cm
- Ulcer width ([3]; mean, G3, 9 mg/kg PO QD × 7): 0.85 cm
- colon weight ([3]; positive control drug): significantly reduce

SMILES: Cc1ccc(NC(=O)c2ccc(CN3CCN(C)CC3)cc2)cc1Nc1nccc(-c2cccnc2)n1 [Imatinib]
- inflammatory cell infiltration of the lesioned skin [4]: visibly reduce
- subdermal capillary hyperplasia [4]: visibly reduce
- death of animals [5]: One animal in Imatinib group died on Day 28
